The assay has as its target T1, human Edg-1 receptor (Homo sapiens, UniProt P21453).
T1 construct: FLAG (N); expressed in transfected cells; membrane preparation
Put plainly: GTP-γ-S assay using human Edg-1 receptors (scintillation proximity assay, CHO Flp-In membrane preparation). The assay is classed as biochemical. Particulars: test compound 10 μM; high control 10 μM S1P regarded as 100% activation; background-corrected; triplicate. From the text:
Determination of the Pharmacological Activity A) GTP-γ-S Assay Using Human Edg-1 Receptors
In order to determine the Edg-1 receptor activation by the compounds of the invention, a GTP-γ-S (guanosine 5′-[y-thio]triphosphate) assay for G-protein coupled receptor binding based on the scintillation proximity assay principle was used, employing a cell membrane preparation from a CHO Flp-In cell line which constitutively overexpresses the human Edg-1 receptor.
A membrane preparation was obtained by standard methods from the afore-described CHO Flp-In cell line constitutively overexpressing the human Edg-1 receptor. Briefly, the cryopreserved cells were taken in culture and grown until confluency in T175 cell culture flasks (Becton Dickinson, cat. no. 35 5001). Cell culture was stopped by washing with calcium-free phosphate-buffered saline (PBS; Gibco, cat. no. 14190), and cells were harvested with a rubber-policeman in 4° C. cold and calcium-free PBS supplemented with a protease inhibitor cocktail (complete protease inhibitor; Roche, cat. no. 1697498; 1 tablet per 50 ml) and subsequently centrifuged at 4° C. for 15 min at 1100×g (Heraeus Minifuge T). For cell lysis, the pellet was resuspended in a 4° C. cold hypotonic buffer consisting of 5 mM HEPES (Sigma-Aldrich, cat. no. H-0981), 1 mM EDTA (disodium salt; Merck, cat. No. 8418) supplemented with protease inhibitor cocktail (as above) in which cells were stored for another 15 min on ice. After lysis, cells were centrifuged at 4° C. for 10 min at 400×g (Heraeus Minifuge T). The pellet was disrupted in a Dounce homogenizer, diluted with the supernatant of the previous centrifugation and subsequently centrifuged at 4° C. for 10 min at 500×g (Heraeus Minifuge T) in order to separate nuclei and still intact cells from the membranes mainly present in the supernatant. The supernatant was then diluted in hypotonic buffer and centrifuged (Beckmann, Avanti J251) at approximately 18600×g for 2 h at 4° C. […] Protein concentration of the membrane preparation was determined in a sample by means of a commercial protein assay (Bio-Rad, DC Protein Assay, cat. nos. 500-0113, 500-0114, 500-0115).
The Edg-1 membrane preparation obtained in (b) was employed in a commercially available scintillation proximity assay (SPA) kit for G-protein coupled receptor binding from Amersham Biosciences/GE Healthcare (code RPNQ0210), in which ligand-induced binding of ^35S-radiolabled GTP-γ-S to the receptor-containing membrane, which is bound to scintillation beads, stimulates the emission of light and allows to quantify the in vitro activity of the Edg-1 agonistic compound. […]
In general terms: SPA uses beads or plates that emit light when radiolabelled molecules are held near them.
T1 sequence (P21453 whole entry): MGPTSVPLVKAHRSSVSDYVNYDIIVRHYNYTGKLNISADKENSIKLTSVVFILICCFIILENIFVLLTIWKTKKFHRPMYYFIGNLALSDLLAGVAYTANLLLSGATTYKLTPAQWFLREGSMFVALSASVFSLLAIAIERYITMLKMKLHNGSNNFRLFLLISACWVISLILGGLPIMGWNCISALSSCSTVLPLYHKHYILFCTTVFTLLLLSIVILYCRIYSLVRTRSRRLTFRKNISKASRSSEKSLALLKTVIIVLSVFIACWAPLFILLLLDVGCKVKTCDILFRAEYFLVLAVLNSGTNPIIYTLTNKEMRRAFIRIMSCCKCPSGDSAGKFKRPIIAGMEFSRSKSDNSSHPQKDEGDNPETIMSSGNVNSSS
For the compound `Cc1cc(-c2nc3cnc(Oc4ccccc4F)nc3o2)cc(C)c1OCC(=O)N1CCC[C@H]1C(=O)O` [Example 1, (S)-1-(2-{4-[5-(2-Fluoro-phenoxy)-oxazolo[5,4-d]pyrimidin-2-yl]-2,6-dimethyl-phenoxy}-acetyl)-pyrrolidine-2-carboxylic acid], the “Edg-1 receptor activation in percent of the activation by 10 μM S1P (% Activation)” value came to 115%.
Turning to `Cc1cc(-c2nc3cnc(Oc4ccccc4F)nc3o2)cc(C)c1OC(C)C(=O)N1CCC[C@H]1C(=O)O` (stereo partly drawn) [Example 2, (S)-1-(2-{4-[5-(2-Fluoro-phenoxy)-oxazolo[5,4-d]pyrimidin-2-yl]-2,6-dimethyl-phenoxy}-propionyl)-pyrrolidine-2-carboxylic acid], the “Edg-1 receptor activation in percent of the activation by 10 μM S1P (% Activation)” value turned out to be 93%.
`O=C(O)[C@@H]1CCCN1C(=O)/C=C/c1ccc(-c2nc3cnc(Oc4ccccc4F)nc3o2)cc1` [Example 3, (S)-1-((E)-3-{4-[5-(2-Fluoro-phenoxy)-oxazolo[5,4-d]pyrimidin-2-yl]-phenyl}-acryloyl)-pyrrolidine-2-carboxylic acid]: the “Edg-1 receptor activation in percent of the activation by 10 μM S1P (% Activation)” value stood at 82%.
`O=C(O)[C@@H]1CCCN1C(=O)CCc1ccc(-c2nc3cnc(Oc4ccccc4F)nc3o2)cc1` [Example 4, (S)-1-(3-{4-[5-(2-Fluoro-phenoxy)-oxazolo[5,4-d]pyrimidin-2-yl]-phenyl}-propionyl)-pyrrolidine-2-carboxyl is acid]: the “Edg-1 receptor activation in percent of the activation by 10 μM S1P (% Activation)” value was 103%.
